{"source": "patent US20110275714A1", "about": "“Use Of Cationic Surfactants As Acaricidal Agents” (priority 2009, published 2011)", "key": {"[1]": {"tested_on": "Hyalomma marginatum rufipes", "assay": "Mortality of adult ticks in vials with LAE in a food carrier (Example 1)", "conditions": "24 h contact", "method": "This example determines the activity of LAE against a type of tick, Hyalomma marginatum rufipes.\nDuring 3 weeks adult ticks of Hyalomma marginatum rufipes were unfed. 15 unsexed ticks were introduced in each vial of treatment. All vials were closed with a mesh and plastic bands in order to avoid that ticks could escape from the vials. The mortality of ticks was studied 24 h later and compared from the different treatments performed.\nTwo types of treatment were performed and then compared with the control. One treatment consisted in a dispersion of 0.2% LAE in a food carrier. The other treatment was 1.0% LAE in a food carrier. The control was a vial that contained the ticks without LAE. For each treatment and control samples 5 replicates were carried out.\nAfter 24 hours of contact of ticks with LAE in the vials, the percentage of mortality of ticks was determined (Table 2)."}, "[2]": {"tested_on": "Mold mite Tyrophagus putrescentiae", "assay": "Mold mite survivorship in rearing diet with LAE, six weeks (Example 2)", "assay_type": "in vivo", "conditions": "1% LAE in diet", "method": "This example determines the effect of LAE on the mortality, reproduction and immature development of Mold mite Tyrophagus putrescentiae.\nMixed developmental stages of the Mold mite, Tyrophagus putrescentiae, were used in the experiments. The individuals of the species came from IRTA, Crop Protection Department and had been maintained on standard diets at 25±1° C., 70±10% r.h. and a photoperiod of 16:8 L:D. Experiments were conducted in a climatic chamber at the same environmental conditions.\nThe food additive (LAE) was supplied by the company VEDEQSA as a fine sifted dust, and was uniformly mixed with a mix of bran, brewer's yeast and glycerin for the Mold mite. A high dosage of 1% LAE was tested. A control treatment with no food additive was included for reference. Fifteen replications per treatment were prepared.\nFor the mold mite, the experimental arenas were ventilated plastic cages (100 ml) containing 15 g of a mixed diet (bran, brewer's yeast and giycerine). Mites were added to arenas in numbers of 25 individuals. Plastic cages were isolated in hermetic boxes containing a solution of glycerine in order to maintain the relative humidity at 75%.\nSix weeks after T. putrescentiae infestation the total number of individuals present in each replication was counted. […]"}, "[3]": {"tested_on": "Mold mite Tyrophagus putrescentiae", "assay": "Mold mite survivorship in diet with Mirenat-G (LAE in glycerin), four weeks (Example 3)", "assay_type": "in vivo", "conditions": "for Mold mites number: four weeks after infestation with 25 individuals, n = 15, means ± SEM", "method": "This example determines the effect of three different concentrations of LAE on the mortality, reproduction and immature development of mold mite Tyrophagus putrescentiae. The dose level tested were 0.125%, 0.25% and 0.5% of LAE.\nMixed developmental stages of the Mold mite, Tyrophagus putrescentiae, were used in the experiments. The individuals of this specie came from IRTA, Crop Protection Department and had been maintained on standard diets at 25±1° C., 70±10% r.h. and a photoperiod of 16:8 L:D. Experiments were conducted in a climatic chamber at the same environmental conditions.\nThe food additive Mirenat-G (10.5% LAE in glycerin) was supplied by the company VEDEQSA and was uniformly mixed with a mix of bran, brewer's yeast for the Mold mite. It was tested at the following dosages of 0.125%, 0.25% and 0.5% LAE. A control treatment with no food additive was included for reference. Fifteen replications per treatment were prepared.\nFor the mold mite, the experimental arenas were ventilated plastic cages (100 ml) containing 15 g of a mixed diet (bran, brewer's yeast and glycerin). Mites were added to arenas in numbers of 25 individuals. Plastic cages were isolated in hermetic boxes containing a solution of glycerine in order to maintain the relative humidity at 75%.\nFour weeks after T. putrescentiae infestation the total number of individuals present in each replication was counted.\nThe mean number of individuals were compared between treatments with or without the additive for the pest specie using a one-way analysis of variance (ANOVA) procedure and means were separated by Tukey test (PROC GLM; SAS Institute 2000)."}, "mite colonies": {"tested_on": "mite colonies", "assay": "Mite colonies on cured ham treated with LAE on the surface (Example 4)", "assay_type": "in vivo", "method": "A dose level of 200 ppm of LAE (or 0.02% of LAE) was added onto the surface of a ham at the beginning of its curing process. The results were compared with a control sample that consisted on a cured ham without being treated with LAE. All hams (control and treated with LAE) were cured during a period of 6 months.\nAfter 6 months, when the curing process was finished it was observed that 85% of ham not treated with LAE (control samples) had mite colonies alive onto the surfaces of hams. In contrast, only 30% of hams treated with LAE had mite colonies alive onto their surface.\nBefore delivering the hams to the client, the producer extracted the bone in order to slice the ham. It was observed that 25% of ham non-treated with LAE (control) contained mite colonies alive inside the ham. The presence of mite colonies produced the formation of holes between 2 to 3 cm of diameter. These holes in the ham looked like a putrefacted ham."}, "[4]": {"tested_on": "Arthrobacter oxydans ATCC 8010", "conditions": "Gram + Bacteria; cited from earlier work"}, "[5]": {"tested_on": "Bacillus cereus var mycoide ATCC 11778", "conditions": "Gram + Bacteria; cited from earlier work"}, "[6]": {"tested_on": "Bacillus subtilis ATCC 6633", "conditions": "Gram + Bacteria; cited from earlier work"}, "[7]": {"tested_on": "Clostridium perfringens ATCC 77454", "conditions": "Gram + Bacteria; cited from earlier work"}, "[8]": {"tested_on": "Listeria monocytogenes ATCC 7644", "conditions": "Gram + Bacteria; cited from earlier work"}, "[9]": {"tested_on": "Staphylococcus aureus ATCC 6538", "conditions": "Gram + Bacteria; cited from earlier work"}, "[10]": {"tested_on": "Micrococcus luteus ATCC 9631", "conditions": "Gram + Bacteria; cited from earlier work"}, "[11]": {"tested_on": "Lactobacillus delbrueckii ssp lactis CECT 372", "conditions": "Gram + Bacteria; cited from earlier work"}, "[12]": {"tested_on": "Leuconostoc mesenteroides CETC 912", "conditions": "Gram + Bacteria; cited from earlier work"}, "[13]": {"tested_on": "Alcaligenes faecalis ATCC 8750", "conditions": "Gram − Bacteria; cited from earlier work"}, "[14]": {"tested_on": "Bordetella bronchiseptica ATCC 4617", "conditions": "Gram − Bacteria; cited from earlier work"}, "[15]": {"tested_on": "Citrobacter freundii ATCC 22636", "conditions": "Gram − Bacteria; cited from earlier work"}, "[16]": {"tested_on": "Enterobacter aerogenes CECT 689", "conditions": "Gram − Bacteria; cited from earlier work"}, "[17]": {"tested_on": "Escherichia coli ATCC 8739", "conditions": "Gram − Bacteria; cited from earlier work"}, "Escherichia coli 0157H7": {"tested_on": "Escherichia coli 0157H7", "conditions": "Gram − Bacteria; cited from earlier work"}, "[18]": {"tested_on": "Klebsiella pneumoniae var pneumoniae CECT 178", "conditions": "Gram − Bacteria; cited from earlier work"}, "[19]": {"tested_on": "Proteus mirabilis CECT 170", "conditions": "Gram − Bacteria; cited from earlier work"}, "[20]": {"tested_on": "Pseudomonas aeruginosa ATCC 9027", "conditions": "Gram − Bacteria; cited from earlier work"}, "[21]": {"tested_on": "Salmonella typhimurium ATCC16028", "conditions": "Gram − Bacteria; cited from earlier work"}, "[22]": {"tested_on": "Serratia marcenses CECT 274", "conditions": "Gram − Bacteria; cited from earlier work"}, "[23]": {"tested_on": "Mycobacterium phlei ATCC 41423", "conditions": "listed under Gram − Bacteria; cited from earlier work"}, "[24]": {"tested_on": "Aspergillus niger ATCC14604", "conditions": "Fungi; cited from earlier work"}, "[25]": {"tested_on": "Aureobasidium pullulans ATCC 9348", "conditions": "Fungi; cited from earlier work"}, "[26]": {"tested_on": "Gliocadium virens ATCC 4645", "conditions": "Fungi; cited from earlier work"}, "[27]": {"tested_on": "Chaetonium globosum ATCC 6205", "conditions": "Fungi; cited from earlier work"}, "[28]": {"tested_on": "Penicillium chrysogenum CECT 2802", "conditions": "Fungi; cited from earlier work"}, "[29]": {"tested_on": "Penicillium funiculosum CECT 2914", "conditions": "Fungi; cited from earlier work"}, "[30]": {"tested_on": "Candida albicans ATCC 10231", "conditions": "Yeast; cited from earlier work"}, "[31]": {"tested_on": "Rhodotorula rubra CECT 1158", "conditions": "Yeast; cited from earlier work"}, "[32]": {"tested_on": "Saccharomyces cerevisiae ATCC 9763", "conditions": "Yeast; cited from earlier work"}, "[33]": {"conditions": "rats; cited from earlier work"}, "[34]": {"conditions": "animals and humans; cited from earlier work"}}, "note": "“Also recorded” adds a separate entry of the source.", "data": [{"smiles": "CCCCCCCCCCCC(=O)N[C@@H](CCCN=C(N)N)C(=O)OCC.Cl", "note": "[LAE, ethyl ester of the lauramide of the arginine monohydrochloride]", "values": [{"measurement": "Mortality", "setting": "[1]; 0.2% LAE in a food carrier, n = 5", "result": 6.7, "unit": "%"}, {"measurement": "Mortality", "setting": "[1]; 1.0% LAE in a food carrier, n = 5, monohydrochloride", "result": 38.7, "unit": "%"}, {"measurement": "Mold mites number", "setting": "[2]; six weeks after infestation with 25 individuals, n = 15, mean ± SEM", "result": "0.1 ± 0.1^"}, {"measurement": "survivorship of the Mold mite in the standard rearing diet", "setting": "[2]; six weeks after infestation, monohydrochloride", "result": "did not survive; also recorded: very low"}, {"measurement": "Mold mites number", "setting": "[3]; 0.125% LAE (as Mirenat-G) in diet", "result": "20.9 ± 9.77"}, {"measurement": "Mold mites number", "setting": "[3]; 0.25% LAE (as Mirenat-G) in diet", "result": "13.17 ± 3.70"}, {"measurement": "Mold mites number", "setting": "[3]; 0.5% LAE (as Mirenat-G) in diet", "result": "6.7 ± 1.49"}, {"measurement": "reduction in the mean number of individuals present", "setting": "[3]; 0.5% of LAE, after 4-week infestation", "result": 70, "unit": "%"}, {"measurement": "hams with mite colonies alive onto their surface", "setting": "mite colonies; 200 ppm (0.02%) LAE on ham surface at start of curing, after 6 months curing", "result": 30, "unit": "%"}, {"measurement": "mite colonies alive inside the ham", "setting": "mite colonies; 200 ppm (0.02%) LAE on ham surface, sliced ham after 6 months curing", "result": "no presence of mite colonies alive inside the ham"}, {"measurement": "M.I.C.", "setting": "[4]", "result": 64, "unit": "ppm"}, {"measurement": "M.I.C.", "setting": "[5]", "result": 32, "unit": "ppm"}, {"measurement": "M.I.C.", "setting": "[6]", "result": 16, "unit": "ppm"}, {"measurement": "M.I.C.", "setting": "[7]", "result": 16, "unit": "ppm"}, {"measurement": "M.I.C.", "setting": "[8]", "result": 10, "unit": "ppm"}, {"measurement": "M.I.C.", "setting": "[9]", "result": 32, "unit": "ppm"}, {"measurement": "M.I.C.", "setting": "[10]", "result": 128, "unit": "ppm"}, {"measurement": "M.I.C.", "setting": "[11]", "result": 16, "unit": "ppm"}, {"measurement": "M.I.C.", "setting": "[12]", "result": 32, "unit": "ppm"}, {"measurement": "M.I.C.", "setting": "[13]", "result": 64, "unit": "ppm"}, {"measurement": "M.I.C.", "setting": "[14]", "result": 128, "unit": "ppm"}, {"measurement": "M.I.C.", "setting": "[15]", "result": 64, "unit": "ppm"}, {"measurement": "M.I.C.", "setting": "[16]", "result": 32, "unit": "ppm"}, {"measurement": "M.I.C.", "setting": "[17]", "result": 32, "unit": "ppm"}, {"measurement": "M.I.C.", "setting": "Escherichia coli 0157H7", "result": 20, "unit": "ppm"}, {"measurement": "M.I.C.", "setting": "[18]", "result": 32, "unit": "ppm"}, {"measurement": "M.I.C.", "setting": "[19]", "result": 32, "unit": "ppm"}, {"measurement": "M.I.C.", "setting": "[20]", "result": 64, "unit": "ppm"}, {"measurement": "M.I.C.", "setting": "[21]", "result": 32, "unit": "ppm"}, {"measurement": "M.I.C.", "setting": "[22]", "result": 32, "unit": "ppm"}, {"measurement": "M.I.C.", "setting": "[23]", "result": 2, "unit": "ppm"}, {"measurement": "M.I.C.", "setting": "[24]", "result": 32, "unit": "ppm"}, {"measurement": "M.I.C.", "setting": "[25]", "result": 16, "unit": "ppm"}, {"measurement": "M.I.C.", "setting": "[26]", "result": 32, "unit": "ppm"}, {"measurement": "M.I.C.", "setting": "[27]", "result": 16, "unit": "ppm"}, {"measurement": "M.I.C.", "setting": "[28]", "result": 128, "unit": "ppm"}, {"measurement": "M.I.C.", "setting": "[29]", "result": 16, "unit": "ppm"}, {"measurement": "M.I.C.", "setting": "[30]", "result": 16, "unit": "ppm"}, {"measurement": "M.I.C.", "setting": "[31]", "result": 16, "unit": "ppm"}, {"measurement": "M.I.C.", "setting": "[32]", "result": 32, "unit": "ppm"}, {"measurement": "absorption and metabolisation", "setting": "[33]", "result": "fast absorption and metabolisation into naturally-occurring amino acids and the fatty acid lauric acid"}, {"measurement": "toxicological studies", "setting": "[34]", "result": "completely harmless to animals and humans"}]}]}
